Source: paper PMC10396955, “2-Oxabicyclo[2.1.1]hexanes as saturated bioisosteres of the ortho-substituted phenyl ring” (Nature Chemistry, 2023)
Read-outs that look alike come from different tables or passages of the source.

Columns and labels:
[1] = test system: Fusarium verticillioides; assay: Antifungal activity, agar well diffusion method; type: cell-based; details: for zone of inhibition at 3.9 µg/mL / zone of inhibition at […] / zone of inhibition at 15.6 µg/mL / zone of inhibition at 31.25 µg/mL / zone of inhibition at 62.5 µg/mL / zone of inhibition at 125 µg/mL / zone of inhibition at 250 µg/mL / zone of inhibition at 500 µg/mL / zone of inhibition at 1000 µg/mL: Fusarium verticillioides, 0 = absence of antifungal activity, read-out: Diameter of inhibition zone; for zone of inhibition at 3.9 µg/mL: 0.0039 mg/mL; for zone of inhibition at […]: 0.0078 mg/mL; for zone of inhibition at 15.6 µg/mL: 0.0156 mg/mL; for zone of inhibition at 31.25 µg/mL: 0.03125 mg/mL; for zone of inhibition at 62.5 µg/mL: 0.0625 mg/mL; for zone of inhibition at 125 µg/mL: 0.125 mg/mL; for zone of inhibition at 250 µg/mL: 0.25 mg/mL; for zone of inhibition at 500 µg/mL: 0.5 mg/mL; for zone of inhibition at 1000 µg/mL: 1 mg/mL, 40 µl per well, 25 °C, 72 h; for lowest inhibition concentration: agar well diffusion, tested 0.0039-1.0 mg/mL
Excerpt: (§1) The agar well diffusion method is widely used to evaluate the antimicrobial activity of different substances (S. Magaldi, S. Mata-Essayag, C. Hartung de Capriles, et al. Well diffusion for antifungal susceptibility testing, Int. J. Infect. Dis. 8, 2004 , 39–45; C. Valgas, S. M. De Souza, E. F. A. Smânia, et al. Screening methods to determine antibacterial activity of natural products. Braz. J. Microbiol. 38 , 2007 , 369–380). Similarly to the procedure used in a disk-diffusion method, the agar plate surface is inoculated by spreading a volume of the microbial inoculum over the entire agar surface. Then, a hole with a diameter of 6 to 8 mm is punched aseptically with a sterile cork borer or a tip, and a volume […] of the antimicrobial agent or extract solution at desired concentration is introduced into the well. Then, agar plates are incubated under suitable conditions depending upon the test microorganism. The antimicrobial agent diffuses in the agar medium and inhibits the growth of the microbial strain tested (M. Balouiri, M. Sadiki, S. K. Ibnsouda. Methods for in vitro evaluating […]
(§2) Agar well diffusion method is a qualitative method used to measure the ability of compounds to inhibit microbial growth. This test is a quick and easy way to measure and compare levels of inhibitory […]
(§3) Antifungal activity of the synthetic compounds using agar well diffusion The compunds were tested towards plant pathogens Fusarium oxysporum Schltdl. and F. verticillioides (Sacc.) Nirenberg isolated from crops. Antifungal activity of the synthetic compounds was evaluated with using of an agar well diffusion method based on a disk diffusion assay for testing filamentous fungi (CLSI M51-A) [CLSI. Method for Antifungal Disk Diffusion Susceptibility Testing of Nondermatophyte Filamentous Fungi; Approved Guideline.CLSI document M51-A. Wayne, PA:
(§4) Clinical and Laboratory Standards Institute; 2010. This method is standardized for Altenaria , Aspergillus, Bipolaris , Fusarium , order Mucorales etc.
(§5) Preparation of synthetic compounds for mycological assay
(§6) Solutions of fungicides and its analogs were diluted in dimethyl sulfoxide (DMSO) to produce the […]
(§7) Antifungal well diffusion method
(§8) The fungal strains were cultured on potato dextrose agar slants (PDA, Eur. Pharm.) and incubated at 25 °C for 5 days. Sterile distilled water was used to cover and resuspend the colonies. Suspension of […]
(§9) conidia was adjusted to inoculums 5×10^6 conidia/mL. The suspension was further diluted in warm PDA 1:10 to obtain final working inoculums 5×10^5 conidia/mL.
(§10) Polypropylene cylinders (d, 5 mm) were placed on the surface and wells punched in the medium were used as reservoir of the test substances in different concentrations. 40 µl of solutions containing 0.0039-1.0 mg/mL of a test compound was added into the wells.
(§11) Each compound was tested in triplicate at different concentrations. Growth control was a well with 40 µl of DMSO, which was used for test components dilution.
(§12) Plates incubated at 25 °C for 72 h. The test compounds at known concentration into contact with an inoculated medium then exerts a growth-inhibiting effect then a clear zone (the zone of inhibition) appears around the test product. Diameter of a clear zone around the well is measured at the end of the incubation period in millimeters. If the fungal strain is susceptible to the antifungal agent, then a zone of inhibition appears on the agar plate. If it is resistant to the test compound, then no zone is evident.
(§13) The size of the zone of inhibition is usually related to the level of antifungal activity present in the […]
(§14) The growth rate of Fusarium oxysporum and F. verticillioides for each well was determined visually and compared with the growth of control.
(§15) As shown in the table the antifungal activity of the 6 compounds, - Fluxapyroxad, compound 28, compound 29, Boscalid, compound 30, compound 31, - were tested against plant pathogenic fungal […]
(§16) toward Fusarium oxysporum (Table S5, Figure S16). Inhibition zones of all compounds characterized […]

[2] = test system: Fusarium oxysporum; assay: Antifungal activity, agar well diffusion method; type: cell-based; details: for zone of inhibition at 3.9 µg/mL / zone of inhibition at […] / zone of inhibition at 15.6 µg/mL / zone of inhibition at 31.25 µg/mL / zone of inhibition at 62.5 µg/mL / zone of inhibition at 125 µg/mL / zone of inhibition at 250 µg/mL / zone of inhibition at 500 µg/mL / zone of inhibition at 1000 µg/mL: Fusarium oxysporum, zones st (static growth), read-out: Diameter of inhibition zone; for zone of inhibition at 3.9 µg/mL: 0.0039 mg/mL; for zone of inhibition at […]: 0.0078 mg/mL; for zone of inhibition at 15.6 µg/mL: 0.0156 mg/mL; for zone of inhibition at 31.25 µg/mL: 0.03125 mg/mL; for zone of inhibition at 62.5 µg/mL: 0.0625 mg/mL; for zone of inhibition at 125 µg/mL: 0.125 mg/mL; for zone of inhibition at 250 µg/mL: 0.25 mg/mL; for zone of inhibition at 500 µg/mL: 0.5 mg/mL; for zone of inhibition at 1000 µg/mL: 1 mg/mL, 40 µl per well, 25 °C, 72 h; for lowest inhibition concentration: agar well diffusion, tested 0.0039-1.0 mg/mL
Excerpt: as §1, §2, §3, §4, §5, §6, §7, §8, §9, §10, §11, §12, §13, §14, §15, §16

[3] = Metabolic stability in human liver microsomes; type: in vitro ADME; details: both sexes; for microsomal CLint at 2 µM: 0.42 mg protein per ml, Table S3, read-out: Clint; for microsomal CLint at 2 µM / half-life at 2 µM / k el at 2 µM: * approximate due to high stability; for half-life at 2 µM: read-out: t1/2; for k el at 2 µM: elimination constant, read-out: kel (converted)
Procedure: (§17) The data acquisition and system control was performed using Analyst 1.6.3 software from AB Sciex. Methods Microsomal incubations were carried out in 96-well plates in 5 aliquots of 30 μL each (one for each time point). […] In the control reactions the NADPH-cofactor system was substituted with phosphate buffer. […] Each reaction was performed in duplicates. Five time points over 40 minutes were analyzed. The reactions were stopped by adding 4 volumes of methanol containing internal standard to incubation aliquots, followed by protein sedimentation by centrifuging at 5500 rpm for 4 minutes. […]. Supernatants were analyzed using the HPLC system coupled with tandem mass spectrometer. […] In some cases, the last time point is excluded from the calculations to ensure acceptable logarithmic linearity of decay.

[4] = test system: human liver microsomes; assay: Metabolic stability in human liver microsomes; type: in vitro ADME; details: human liver microsomes
Procedure: as §17

[5] = human, liver microsomes, pH 7.4, human liver microsomes, 2 μM, 37 °C, with NADPH, 7 min
[6] = human, liver microsomes, pH 7.4, human liver microsomes, 2 μM, 37 °C, with NADPH, 15 min
[7] = human, liver microsomes, pH 7.4, human liver microsomes, 2 μM, 37 °C, with NADPH, read-out: % Remaining, Mean of 2
[8] = human, liver microsomes, pH 7.4, human liver microsomes
[9] = pH 7.4, human liver microsomes, no NADPH cofactor, ** instability partially or completely not determined by CYP450 activity, read-out: % Remaining without cofactor, Mean of 2

SMILES | zone of inhibition at 3.9 µg/mL [1] [mm] | zone of inhibition at […] [1] [mm] | zone of inhibition at 15.6 µg/mL [1] [mm] | zone of inhibition at 31.25 µg/mL [1] [mm] | zone of inhibition at 62.5 µg/mL [1] [mm] | zone of inhibition at 125 µg/mL [1] [mm] | zone of inhibition at 250 µg/mL [1] [mm] | zone of inhibition at 500 µg/mL [1] [mm] | zone of inhibition at 1000 µg/mL [1] [mm] | zone of inhibition at 3.9 µg/mL [2] [mm] | zone of inhibition at […] [2] [mm] | zone of inhibition at 15.6 µg/mL [2] [mm] | zone of inhibition at 31.25 µg/mL [2] [mm] | zone of inhibition at 62.5 µg/mL [2] [mm] | zone of inhibition at 125 µg/mL [2] [mm] | zone of inhibition at 250 µg/mL [2] [mm] | zone of inhibition at 500 µg/mL [2] [mm] | zone of inhibition at 1000 µg/mL [2] [mm] | lowest inhibition concentration [2] [mg/mL] | remaining at […], 2 µM [3, 5] [%] | other results
Cn1cc(C(=O)N[C@@H]2[C@@H]3CC[C@@]2(c2cc(F)c(F)c(F)c2)C3)c(C(F)F)n1 (relative stereo) [Compound 28] | 35 ± 1.5 | 37 ± 1.5 | 41 ± 1.2 | 41 ± 1.7 | 47 ± 1 | 48 ± 1.5 | 51 ± 1.5 | 51 ± 1.7 | 58 ± 1.5 | 20 | 25 | 26 ± 1 | 28 ± 1 | 30 ± 0.6 | 34 ± 1.2 | 38 ± 1.5 | 38 ± 0.6 | 44 ± 1.15 | < 0.0039 | 78 | remaining at […], 2 µM [3, 6]: 72%; remaining at 25 min, 2 µM [3, 7]: 57%; remaining at 40 min, 2 µM [3, 7]: 55%; microsomal CLint at 2 µM [3, 8]: 35 µL/min/mg; half-life at 2 µM [3, 8]: 0.79 h; remaining at 40 min, 2 µM [3, 9]: 99%; k el at 2 µM ([3]; pH 7.4, human liver microsomes): 0.00025 s⁻¹; CIint, intrinsic clearance [4]: 35 µL/min/mg
Cn1cc(C(=O)N[C@@H]2[C@H]3C[C@]2(c2cc(F)c(F)c(F)c2)CO3)c(C(F)F)n1 (relative stereo) [Compound 29] | 0 | 10 | 15 ± 0.6 | 26 ± 1.2 | 31 ± 1.2 | 35 ± 1 | 39 ± 1.2 | 41 ± 1.7 | 45 ± 0.6 | 9 ± 1.2 | 13 ± 1.5 | 14 ± 1.2 | 18 ± 1.5 | 18 ± 0.6 | 23 ± 0.6 | 32 ± 1.7 | 36 ± 1 | 38 ± 1.53 | 0.0039 | 106 | lowest inhibition concentration [1]: 0.0078 mg/mL; remaining at […], 2 µM [3, 6]: 93%; remaining at 25 min, 2 µM [3, 7]: 83%; remaining at 40 min, 2 µM [3, 7]: 72%; microsomal CLint at 2 µM [3, 8]: 23 µL/min/mg; half-life at 2 µM [3, 8]: 1.22 h; remaining at 40 min, 2 µM [3, 9]: 89%; k el at 2 µM ([3]; pH 7.4, human liver microsomes): 0.00015 s⁻¹; CIint, intrinsic clearance [4]: 23 µL/min/mg
O=C(N[C@@H]1[C@@H]2CC[C@@]1(c1ccc(Cl)cc1)C2)c1cccnc1Cl (relative stereo) [Compound 30] | 11 ± 1.2 | 19 ± 1.2 | 25 ± 0.6 | 30 ± 0.6 | 31 ± 1 | 36 ± 1.7 | 41 ± 1.2 | 46 ± 1.7 | 49 ± 1.2 | 16 ± 1.2 | 19 ± 1.2 | 20 ± 1.5 | 25 ± 0.6 | 25 | 30 | 30 | 30 | 30 | < 0.0039 | 94 | lowest inhibition concentration [1]: < 0.0039 mg/mL; remaining at […], 2 µM [3, 6]: 95%; remaining at 25 min, 2 µM [3, 7]: 90%; remaining at 40 min, 2 µM [3, 7]: 80%; microsomal CLint at 2 µM [3, 8]: 12 µL/min/mg; half-life at 2 µM [3, 8]: 2.31 h; remaining at 40 min, 2 µM [3, 9]: 71%; k el at 2 µM ([3]; pH 7.4, human liver microsomes): 8.33e-05 s⁻¹; CIint, intrinsic clearance [4]: 12 µL/min/mg
